Test results published in patent US7737182B2, “Pharmaceuticals for xerosis” (Taisho Pharmaceutical Co., Ltd., priority 2001, dated 2010).

Tests used:
BALB/c male mice [1] = test: Mouse skin's barrier function, preventive test, TEWL (Test Example 6); assay type: in vivo; conditions: cohabitation with dermatitic NC/Nga mice; 0.01% in ethanol, 100 μL, once a day for 7 days
Description: Six-week-old BALB/c male mice in groups of six were shaven in a rostral dorsolateral area of 4 cm^2 (2 cm×2 cm) with electric clippers and kept in the same cage as NC/Nga mice that had developed dermatitis. From the day next to the start of cohabitation, a solvent (ethanol, 100 μL) or a drug dissolved in the solvent (compound No. 7, PGD2, PGF2α, or PGE1, all being at 0.01% in an amount of 100 μL) was applied to the shaven site for 7 days on once-a-day basis.
On the day next to the seventh application of the solvent or drug, the transepidermal water loss (TEWL) at the same site was measured with Tewameter (TM210 of Courage & Khazawa, Germany) to evaluate the drug's action, with the solvent-applied group being used as the control group.

BALB/c male mice [2] = test: Mouse skin's barrier function, treatment test, TEWL (Test Example 5); assay type: in vivo; conditions: barrier destroyed with acetone/diethyl ether; 0.01% in ethanol, 100 μL, once a day for 2 days
Description: Six-week-old BALB/c male mice in groups of eight were shaven in a rostral dorsolateral area of 4 cm^2 (2 cm×2 cm) with electric clippers and the shaven area was covered for 60 seconds with an absorbent cotton (2 cm×2 cm) impregnated with a 1:1 liquid mixture of acetone and diethyl ether. This treatment for destroying the skin's barrier function was performed for 3 consecutive days on once-a-day basis. Starting on the day next to completion of the treatment for barrier destruction at day 3, a solvent (ethanol, 100 μL) or a drug dissolved in the solvent (compound No. 7, PGD2, PGF2α, or PGE1, all being at 0.01% in an amount of 100 μL) was applied to the barrier destroyed site for 2 days on once-a-day basis. On the day next to the second application of the solvent or drug, the transepidermal water loss (TEWL) at the same site was measured with Tewameter (TM210 of Courage & Khazawa, Germany) to evaluate the drug's action.

[3] = test system: Fifty-week-old BALB/c male mice; test: Aged mouse skin's barrier function, treatment test, TEWL (Test Example 7); assay type: in vivo; conditions: 50-week-old mice; 0.0001% in ethanol, 200 μL, once a day for 3 days
Description: Fifty-week-old BALB/c male mice (eight in each group) were shaven in a rostral dorsolateral area of 4 cm^2 (2 cm×2 cm) with electric clippers. Starting on the next day, a solvent (ethanol, 200 μL) or a drug dissolved in the solvent (compound No. 7 or PGD2, each being at 0.0001% in an amount of 200 μL) was applied to the shaven site for 3 days on once-a-day basis.
On the day next to the third application of the solvent or drug, TEWL at the same site was measured with Tewameter (TM210 of Courage & Khazawa, Germany) to evaluate the drug's action.

human platelets = test: Suppression of ADP-induced aggregation of human platelets; assay type: cell-based; conditions: human platelet-rich plasma, ADP (3 μM), Born method
Description: (A) Using the active ingredient of the present invention (compound No. 7) and PGD2 as a control for comparison, prostaglandin D receptor binding selectivity was determined with reference to the platelet aggregation suppressing action as the prostaglandin D receptor agonist action. 1. Human Platelet Aggregation Suppressing Action Suppression of ADP-Induced Aggregation of Human Platelets
The test was performed on purchased platelet-rich plasma (PRP) (6×10^8 platelets/mL) and platelet aggregation was measured based on the Born method (Nature, vol. 194, p. 927, 1962). To 100 μL of PRP, 5 μL of a 1 nM-3 μM test drug solution in ethanol was added and the mixture was incubated at 37° C. for 1 minute with stirring at 1000 rpm. To the resulting mixture, 5 μL of an aggregation inducer [ADP (3 μM)] was added to induce platelet aggregation and a maximum percent aggregation (a maximum change in light transmittance that occurred within 5 minutes after the induction of platelet aggregation) was determined by an aggregometer. The percent suppression of aggregation by each test drug was calculated from the maximum percent aggregation by the test drug as relative to the maximum percent aggregation by ethanol instead of the test drug solution and IC50 values were determined from the constructed dose-response curve.

prostaglandin D receptor = molecular target: T1, prostaglandin D receptor (Homo sapiens, UniProt Q13258); test: Antagonism by BW A868C of the suppression of ADP-induced human platelet aggregation; assay type: cell-based; conditions: final concentration 1000 nmol/L, human PRP, ADP 3 μmol/L
T1 construct: separate the supernatant (PRP, or platelet-rich plasma); endogenous in cells; host or cells: human platelets (platelet-rich plasma from healthy male donors)
T1 sequence (Q13258 1-359): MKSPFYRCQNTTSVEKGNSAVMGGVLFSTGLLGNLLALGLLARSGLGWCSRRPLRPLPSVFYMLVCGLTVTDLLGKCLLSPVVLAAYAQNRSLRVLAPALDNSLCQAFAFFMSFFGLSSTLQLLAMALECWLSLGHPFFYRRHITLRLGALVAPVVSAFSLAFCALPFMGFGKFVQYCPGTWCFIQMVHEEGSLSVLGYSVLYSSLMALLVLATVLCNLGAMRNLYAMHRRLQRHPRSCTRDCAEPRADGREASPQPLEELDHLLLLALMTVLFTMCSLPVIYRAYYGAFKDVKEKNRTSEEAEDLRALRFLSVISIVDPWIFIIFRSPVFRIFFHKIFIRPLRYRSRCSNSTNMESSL
Description: The prostaglandin D receptor selective antagonist used in the test was ((+/−)-3-benzyl-5-(6-carboxyhexyl)-1-(2-cyclohexyl-2-hydroxyethylamino)-hydantoin) (hereunder designated BW A868C) (Sigma-Aldrich Japan K.K.)
BW A868C was diluted with ethanol to final concentrations of 0.03 μmol/L, 0.1 μmol/L, 0.3 μmol/L, 1 μmol/L, 3 μmol/L and 10 μmol/L.
Compound No. 7 and PGD2 were diluted with ethanol to 287 nmol/L and 300 nmol/L, respectively, for subsequent use.
Blood was taken from the cubital veins of human healthy males and sampled into a tube containing 3.13% sodium citrate. The blood sample was centrifuged at 1,000 rpm for 10 minutes at 20° C. to separate the supernatant (PRP, or platelet-rich plasma) and the residue was further centrifuged at 3,000 rpm for 10 minutes at 20° C. to separate the supernatant (PPP, or platelet-poor plasma). The platelet count of PRP was appropriately diluted with PPP to 30×10^4 platelets/μL for subsequent use.
Platelet aggregation was measured with a platelet aggregation measuring instrument (PAM-8C; MC MEDICAL Co., LTD.) by the Born method (Nature, vol. 194, p. 927, 1962). A portion (273 μL) of PRP (for the BW A868C groups, 1 μL of BW A868C was added at varying concentrations) was preincubated at 37° C. for 3 minutes with stirring at 1,000 rpm. After the preincubation, 1 μL of ethanol or a test substance (compound No. 7: final concentration at 95.7 nmol/L; PGD2: final concentration at 1000 nmol/L) was added and the mixture was incubated at 37° C. for 3 minutes with stirring at 1000 rpm. After the incubation, 25 μL of ADP (final concentration at 3 μmol/L) was added to induce platelet aggregation and a maximum percent aggregation for 5 minutes was measured.

guinea pig platelets = test: Suppression of ADP-induced aggregation of guinea pig platelets; assay type: cell-based; conditions: guinea pig platelet-rich plasma, ADP (3 μM)
Description: Ten-week-old Hartley male guinea pigs were anesthetized with pentobarbital (30 mg/kg, i.p. injected) and a total of 20 mL of blood was sampled into a syringe containing 2.0 mL of 3.8% sodium citrate. The blood was immediately centrifuged at 900 rpm for 10 minutes at 20° C. to recover the supernatant PRP. By further centrifugation at 3000 rpm for 10 minutes at 20° C., the supernatant PPP was recovered. The platelet count of PRP was diluted with PPP to 30×10^4 platelets/μL for subsequent use.
For platelet aggregation measurement, a platelet aggregation measuring instrument (PAM-8C) was employed. To 274 μL of PRP, 1 μL of a 0.287-95.7 nM test drug solution in ethanol was added and the mixture was incubated at 37° C. for 3 minutes with stirring at 1000 rpm. After the incubation, 25 μL of ADP (3 μM) was added to induce platelet aggregation and a maximum percent aggregation for 5 minutes was measured.
The percent suppression of aggregation by each test drug was calculated from the maximum percent aggregation by the test drug as relative to the maximum percent aggregation by ethanol instead of the test drug solution and IC50 values were determined from the constructed dose-response curve.

Q: `CCCCC[C@H](O)/C=C/[C@H]1C(=O)C[C@H](O)[C@@H]1C/C=C\CCCC(=O)O` [PGD2, prostaglandin D2, reference compound] was tested. Which “transepidermal water loss (TEWL) compared to the control group” value (BALB/c male mice [1]) did it give?
A: significant decrease in TEWL

Q: And the “transepidermal water loss (TEWL) compared to the solvent-applied control group” value (BALB/c male mice [2])?
A: no significant difference from the control group

Q: What about the “transepidermal water loss (TEWL) compared to the control group” value [3] of the same molecule?
A: no significant difference from the control group

Q: And the IC50 (human platelets)?
A: 11 nM

Q: And the “platelet aggregation suppressing action compared with control group (ethanol)” value (prostaglandin D receptor)?
A: significant platelet aggregation suppressing action

Q: And the IC50 (guinea pig platelets)?
A: 54.3 ± 23 nM
